These results are taken from patent US20260200920A1, “SUBSTITUTED AMINOPYRIDINE COMPOUNDS FOR USE AS AKT1 INHIBITORS” (Atavistik Bio, Inc., priority 2023, published 2026).

Assay [1] concerns the target T1, human recombinant kinase full-length AKT1 E17K (Homo sapiens, UniProt P31749, E17K).
T1 construct: Purified human recombinant kinase full-length AKT1 E17K was expressed in insect cells; made in house; host or cells: insect cells
The assay can be described thus: AKT1 E17K kinase assay (TR-FRET, Lance). Format: biochemical. The settings on record: 0.6 nM AKT1 E17K, 50 nM Ulight-CREBtide, either 50 μM ATP or 2 mM ATP, 60 min at RT. A digest of the protocol:
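Full-length AKT1 E17K from insect cells, PDPK1-activated, at 0.6 nM with 50 nM Ulight-CREBtide and 50 μM or 2 mM ATP, pH 7.5, 1% DMSO. Enzyme and compound preincubated 15 min, reaction run 60 min at RT; Eu-anti-phospho-CREB (Ser133) TR-FRET 665/620 ratio, 10-point curve, IC50 by 4-parameter fit.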

The target in assay [2] is T2, human recombinant kinase full-length wildtype AKT1 (Homo sapiens, UniProt P31749).
T2 construct: Purified human recombinant kinase full-length wildtype AKT1 was expressed in insect cells; made in house; host or cells: insect cells
T2 sequence (P31749 whole entry): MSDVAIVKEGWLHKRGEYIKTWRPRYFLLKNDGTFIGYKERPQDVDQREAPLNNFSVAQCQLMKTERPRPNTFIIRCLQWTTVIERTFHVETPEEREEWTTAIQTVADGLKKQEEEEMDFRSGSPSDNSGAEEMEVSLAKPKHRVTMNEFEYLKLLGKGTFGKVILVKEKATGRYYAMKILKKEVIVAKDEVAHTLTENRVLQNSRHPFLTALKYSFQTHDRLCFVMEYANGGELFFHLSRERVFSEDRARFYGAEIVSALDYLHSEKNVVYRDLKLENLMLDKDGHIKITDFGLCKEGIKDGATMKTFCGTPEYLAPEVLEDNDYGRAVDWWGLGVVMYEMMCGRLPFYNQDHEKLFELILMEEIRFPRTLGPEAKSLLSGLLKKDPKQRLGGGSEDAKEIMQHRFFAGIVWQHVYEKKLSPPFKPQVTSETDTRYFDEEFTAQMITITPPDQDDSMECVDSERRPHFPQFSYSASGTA
The assay can be described thus: AKT1 kinase assay (wildtype, TR-FRET, Lance). The settings on record: 0.6 nM wildtype AKT1, 50 nM Ulight-CREBtide, either 50 μM ATP or 2 mM ATP, 60 min at RT. The format is biochemical. A digest of the protocol: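 Insect-cell-expressed full-length human AKT1, PDPK1-activated (0.6 nM), preincubated with compound 15 min at RT, then reacted 60 min at RT with 50 nM ULight-CREBtide and 50 μM or 2 mM ATP (pH 7.5, 1% DMSO). Phospho-CREBtide read by Eu-anti-phospho-Ser133 TR-FRET (665/620 ratio); IC50 from 10-point 4-parameter fit.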

T1 sequence (P31749 whole entry E17K): as the sequence (P31749 whole entry) above, with E17K counted along it

`CC(C)(C(=O)O)[C@H]1CCN(Cc2ccc(-n3c(-c4cccnc4N)nc4ccc(-c5ccccc5)nc43)cc2)C1` (stereo in doubt) [Compound I-175]: the IC50 in assay [1] is 0.5 to 2 µM; in assay [2], less than 20 µM.

Consider `Nc1ncccc1-c1nc2ccc(-c3ccccc3)nc2n1-c1ccc(NC(=O)C2CCC(C(=O)O)C2)cc1` (stereo not shown) [Compound I-1, 3-((4-(2-(2-aminopyridin-3-yl)-5-phenyl-3H-imidazo[4,5-b]pyridin-3-yl)phenyl)carbamoyl)cyclopentane-1-carboxylic acid], for which the figures for the IC50 in assay [1] and in assay [2] were less than 0.5 µM and less than 20 µM, respectively.

In the case of `CNC(=O)[C@H]1CC[C@H](N(C)Cc2ccc(-n3c(-c4cccnc4N)nc4ccc(-c5ccccc5)nc43)cc2)CC1` [Compound I-186, trans-4-((4-(2-(2-aminopyridin-3-yl)-5-phenyl-3H-imidazo[4,5-b]pyridin-3-yl)benzyl)(methyl)amino)-N-methylcyclohexane-1-carboxamide], the IC50 in assay [1] was not below 2 µM; in assay [2] it was less than 20 µM.

Consider `CC(c1ccc(-n2c(-c3cccnc3N)nc3ccc(-c4ccccc4)nc32)cc1)N1CCC(C(=O)O)CC1` (stereo not shown) [Compound I-79, 1-(1-(4-(2-(2-aminopyridin-3-yl)-5-phenyl-3H-imidazo[4,5-b]pyridin-3-yl)phenyl)ethyl)piperidine-4-carboxylic acid], for which the values for the IC50 in assay [1] and in assay [2] were not below 2 µM and less than 20 µM, respectively.

Turning to `Cc1cc(C2CN(CC3CC4CC(C(=O)O)CC4C3)C2)ccc1-n1c(-c2cccnc2N)nc2ccc(-c3ccccc3)nc21` (stereo not shown) [Compound I-207], the figures for the IC50 in assay [1] and in assay [2] were 0.5 to 2 µM and less than 20 µM, respectively.

On to `Nc1ncccc1-c1nc2ccc(-c3ccccc3)nc2n1-c1ccc(C2CN(C[C@@H]3CC[C@@H](C(=O)O)C3)C2)cc1` [Compound I-61, (1R,3R)-3-((3-(4-(2-(2-aminopyridin-3-yl)-5-phenyl-3H-imidazo[4,5-b]pyridin-3-yl)phenyl)azetidin-1-yl)methyl)cyclopentane-1-carboxylic acid], for which the IC50 in assay [1] is less than 0.5 µM; in assay [2], less than 20 µM.

As for `Nc1ncccc1-c1nc2ccc(-c3ccccc3)nc2n1-c1ccc(C2CCN(CC3CCC(C(=O)O)CC3)C2)cc1` (stereo not shown) [Compound I-78, 4-((3-(4-(2-(2-aminopyridin-3-yl)-5-phenyl-3H-imidazo[4,5-b]pyridin-3-yl)phenyl)pyrrolidin-1-yl)methyl)cyclohexane-1-carboxylic acid], the IC50 was 0.5 to 2 µM in assay [1] and less than 20 µM in assay [2].

For the compound `Nc1ncccc1-c1nc2ccc(-c3ccccc3)nc2n1-c1ccc(NC(=O)[C@H]2CC[C@H](C(=O)O)CC2)nc1` [Compound I-10, (1r,4r)-4-((5-(2-(2-aminopyridin-3-yl)-5-phenyl-3H-imidazo[4,5-b]pyridin-3-yl)pyridin-2-yl)carbamoyl)cyclohexane-1-carboxylic acid], the IC50 in assay [1] is less than 0.5 µM; in assay [2] it was less than 20 µM.

In the case of `Nc1ncccc1-c1nc2ccc(-c3ccccc3)nc2n1-c1ccc(C(=O)N2CCC(C(=O)O)CC2)cc1` [Compound I-20, 1-(4-(2-(2-aminopyridin-3-yl)-5-phenyl-3H-imidazo[4,5-b]pyridin-3-yl)benzoyl)piperidine-4-carboxylic acid], the IC50 is not below 2 µM in assay [1] and less than 20 µM in assay [2].

Regarding `Cc1cc(C2CN(C[C@H]3CC[C@@H](C(=O)O)CC3)C2)ccc1-n1c(-c2cccnc2N)nc2ccc(-c3ccccc3)nc21` [Compound I-205], the IC50 in assay [1] is 0.5 to 2 µM; in assay [2], less than 20 µM.

In the case of `Nc1ncccc1-c1nc2ccc(-c3ccccc3)nc2n1-c1ccc(NC(=O)[C@H]2CC[C@@H](C(=O)O)CC2)cc1` [Compound I-3, cis-4-[[4-[2-(2-amino-3-pyridyl)-5-phenyl-imidazo[4,5-b]pyridin-3-yl]phenyl]carbamoyl]cyclohexanecarboxylic acid], the figures for the IC50 in assay [1] and in assay [2] were less than 0.5 µM and less than 20 µM, respectively.

Take `Nc1ncccc1-c1nc2ccc(-c3ccccc3)nc2n1-c1ccc([C@H]2CCN(C[C@H]3CC[C@H](C(=O)O)CC3)C2)cc1` (single isomer, unassigned) [Compound I-232]: the IC50 in assay [1] is 0.5 to 2 µM; in assay [2], less than 20 µM.

For the compound `Cc1nc(NC(=O)C2CCC(C(C)C(=O)O)C2)ccc1-n1c(-c2cccnc2N)nc2ccc(-c3ccccc3)nc21` (stereo not shown) [Compound I-132, 2-(3-((5-(2-(2-aminopyridin-3-yl)-5-phenyl-3H-imidazo[4,5-b]pyridin-3-yl)-6-methylpyridin-2-yl)carbamoyl)cyclopentyl)propanoic acid], the results for the IC50 in assay [1] and in assay [2] were 0.5 to 2 µM and less than 20 µM, respectively.

For the compound `Nc1ncccc1-c1nc2ccc(-c3ccccc3)nc2n1-c1ccc(NC(=O)[C@H]2CC[C@H](C(=O)O)CC2)c(F)c1` [Compound I-6, (1r,4r)-4-((4-(2-(2-aminopyridin-3-yl)-5-phenyl-3H-imidazo[4,5-b]pyridin-3-yl)-2-fluorophenyl)carbamoyl)cyclohexane-1-carboxylic acid], the values for the IC50 in assay [1] and in assay [2] were 0.5 to 2 µM and less than 20 µM, respectively.

Turning to `Cc1cc(C2CN(C[C@H]3CC[C@@H](C(=O)O)CC3)C2)ccc1-n1c(-c2cccnc2N)nc2ccc(-c3ccccc3F)nc21` [Compound I-210], the 50% inhibitory concentration (IC50) in assay [1] was 0.5 to 2 µM; in assay [2], less than 20 µM.

Consider `CC(c1ccc(-n2c(-c3cccnc3N)nc3ccc(-c4ccccc4)nc32)cc1)N(C)[C@H]1CC[C@@H](C(=O)O)CC1` (stereo partly shown) [Compound I-177], for which the IC50 in assay [1] is 0.5 to 2 µM; in assay [2], less than 20 µM.

On to `Cc1cc(C2(C)CN(C[C@H]3CC[C@H](C(=O)O)CC3)C2)ccc1-n1c(-c2cccnc2N)nc2ccc(-c3ccccc3)nc21` [Compound I-156], for which the IC50 in assay [1] was 0.5 to 2 µM; in assay [2] it was less than 20 µM.

With `CC(C)(C(=O)O)C1CCN(c2ccc(-n3c(-c4cccnc4N)nc4ccc(-c5ccccc5)nc43)cn2)C1` (stereo not shown) [Compound I-39, 2-(1-(5-(2-(2-aminopyridin-3-yl)-5-phenyl-3H-imidazo[4,5-b]pyridin-3-yl)pyridin-2-yl)pyrrolidin-3-yl)-2-methylpropanoic acid], the figures for the IC50 in assay [1] and in assay [2] were not below 2 µM and less than 20 µM, respectively.

Regarding `Nc1ncccc1-c1nc2ccc(-c3ccccc3)nc2n1-c1ccc(N2CCC(C(=O)O)C2)nc1` (stereo not shown) [Compound I-25, 1-(5-(2-(2-aminopyridin-3-yl)-5-phenyl-3H-imidazo[4,5-b]pyridin-3-yl)pyridin-2-yl)pyrrolidine-3-carboxylic acid], the IC50 in assay [1] was 0.5 to 2 µM; in assay [2], less than 20 µM.

In the case of `Cc1cc(C2CN(CC34CCC(C(=O)O)(CC3)CC4)C2)ccc1-n1c(-c2cccnc2N)nc2ccc(-c3ccccc3)nc21` [Compound I-206], the IC50 is 0.5 to 2 µM in assay [1] and less than 20 µM in assay [2].

Turning to `CC(C)(C(=O)O)[C@@H]1CCN(Cc2ccc(-n3c(-c4cccnc4N)nc4ccc(-c5ccccc5)nc43)cc2)C1` (stereo in doubt) [Compound I-174], the IC50 in assay [1] was 0.5 to 2 µM; in assay [2], less than 20 µM.

As for `Nc1ncccc1-c1nc2ccc(-c3ccccc3)nc2n1-c1ccc(C2CN(C[C@H]3CC[C@H](C(=O)O)CC3)C2)c(F)c1` [Compound I-62, (1r,4r)-4-((3-(4-(2-(2-aminopyridin-3-yl)-5-phenyl-3H-imidazo[4,5-b]pyridin-3-yl)-2-fluorophenyl)azetidin-1-yl)methyl)cyclohexane-1-carboxylic acid], the IC50 in assay [1] is 0.5 to 2 µM; in assay [2], less than 20 µM.

As for `CC1(C)CC(CN2CCC(c3ccc(-n4c(-c5cccnc5N)nc5ccc(-c6ccccc6)nc54)cc3)CC2)CCC1C(=O)O` (stereo not shown) [Compound I-193], the IC50 in assay [1] is not below 2 µM; in assay [2], less than 20 µM.

As to `Cc1nc(NC2CCC(C(=O)O)CC2)ccc1-n1c(-c2cccnc2N)nc2ccc(-c3ccccc3)nc21` (stereo not shown) [Compound I-109, 4-((5-(2-(2-aminopyridin-3-yl)-5-phenyl-3H-imidazo[4,5-b]pyridin-3-yl)-6-methylpyridin-2-yl)amino)cyclohexane-1-carboxylic acid], the IC50 in assay [1] is 0.5 to 2 µM; in assay [2] it was less than 20 µM.

On to `Nc1ncccc1-c1nc2ccc(-c3ccccc3)nc2n1-c1ccc(C2CCN(C[C@@H]3CCC[C@H](C(=O)O)C3)CC2)cc1` (stereo in doubt) [Compound I-192], for which the IC50 in assay [1] is 0.5 to 2 µM; in assay [2] it was less than 20 µM.

`Cc1nc(NC(=O)C2CCC(C(=O)O)C2)ccc1-n1c(-c2cccnc2N)nc2ccc(-c3ccccc3)nc21` (stereo not shown) [Compound I-129, 3-((5-(2-(2-aminopyridin-3-yl)-5-phenyl-3H-imidazo[4,5-b]pyridin-3-yl)-6-methylpyridin-2-yl)carbamoyl)cyclopentane-1-carboxylic acid]: the IC50 in assay [1] was 0.5 to 2 µM; in assay [2], less than 20 µM.

Consider `Nc1ncccc1-c1nc2ccc(-c3ccccc3F)nc2n1-c1ccc(C2CN(C[C@H]3CC[C@H](C(=O)O)CC3)C2)cc1` [Compound I-213], for which the IC50 was less than 0.5 µM in assay [1] and less than 20 µM in assay [2].

As to `Cc1cc(C2(C)CN(CC3CC4(C3)CC(C(=O)O)C4)C2)ccc1-n1c(-c2cccnc2N)nc2ccc(-c3ccccc3)nc21` (stereo not shown) [Compound I-157], the IC50 is 0.5 to 2 µM in assay [1] and less than 20 µM in assay [2].

For the compound `Nc1ncccc1-c1nc2ccc(-c3ccccc3)nc2n1-c1ccc(C2CCN(C[C@H]3CCC[C@@H](C(=O)O)C3)CC2)cc1` (stereo in doubt) [Compound I-191], the values for the IC50 in assay [1] and in assay [2] were 0.5 to 2 µM and less than 20 µM, respectively.
